Tests used:
MBP-VirF = biological target: T1, MBP-VirF (Shigella flexneri, UniProt P0A2T1); experiment: EMSA in vitro DNA binding by VirF (MBP-VirF); assay type: biochemical; conditions: purified MBP-VirF
T1 construct: made in house; host or cells: E. coli KS 1000, plasmid pMALvirF
Protocol: The IPTG inducible MBP-VirF expression plasmid, pMALvirF, was constructed by cloning virF downstream and in-frame with malE (encoding maltose binding protein, MBP) in the vector pMAL-c2X (New England Biolabs, Beverly, Mass.). MBP-VirF protein (referred to as VirF for simplicity) was purified using amylose affinity chromatography at 4° C. Briefly, pMALvirF was transformed into E. coli strain KS 1000 (New England Biolabs). The cells were grown to an OD600 of 0.5, transferred to 15° C., 0.1 mM IPTG was added, and then incubated overnight with shaking Cells were harvested and resuspended in 10 ml of binding buffer (20 mM Tris, 500 mM NaCl, 1 mM EDTA 1 mM DTT, pH 7.4). Cells were lysed by three freeze thaw cycles with lysozyme (0.4 mg/ml), tris (2-carboxyethyl)phosphine (TCEP, 1 mM) and phenylmethylsulfonyl fluoride (PMSF, 1 mM), at −80° C., followed by sonication and then centrifuged to remove cell debris. […]
Binding of purified VirF to a DNA fragment containing the VirF binding site at virB was analyzed by electrophoretic mobility shift assay (EMSA) (68), in the absence or presence of SE-1. […] Gels were scanned using an Odyssey infrared imager (LI-COR, Lincoln, Nebr.), and quantified using Odyssey software, version 3.0.30. […]

[1] = test system: Shigella invasion of L-929 cells; experiment: Shigella invasion assay (gentamycin protection) in L-929 cells; assay type: cell-based, S. flexneri; conditions: for invasion decrease relative to no inhibitor: Shigella pre-grown with SE-1
Protocol: S. flexneri ipgD^− (SME4331) and mxiH^− (SB116) mutant strains were grown overnight at 30° C. and then diluted to an OD600 of ˜0.1 into TSB plus ampicillin. SE-1 (in DMSO) was added to the cultures at final concentrations of 0, 20, or 40 μM SE-1 and 0.3% DMSO. These cultures and SB116 (no SE-1) were grown at 37° C. in 24-well plates (each with 1.2 ml), in the temperature-controlled chamber of a PowerWave XS plate reader (BioTek Instruments). Bacterial growth was continued at 37° C. with shaking and OD600 monitored every 15 min. A separate sample of SME4331 was grown at 30° C. L-929 cells (mouse fibroblasts, used previously for Shigella invasion assays) that had been grown overnight to ˜90% confluency in 24-well plates were washed 3 times with 1 ml of RPMI each (without FBS or antibiotics), and the final wash was removed by aspiration. (All L-929 incubation steps were carried out at 37° C. in a 5% CO2 humidified atmosphere.) When the OD600 of the bacterial cultures reached 1.0 (˜2.5 h), samples were diluted 100-fold in pre-warmed RPMI (without FBS or antibiotics) and then 300 μl was added to each monolayer of L-929 cells, for a multiplicity of infection of roughly 20. In a control sample, 40 μM SE-1 and bacteria grown at 37° C. without SE-1 were added at the same time to L-929 cells. The 24-well plate was centrifuged (2000×g) for 5 min at room temperature to initiate bacterial-host cell contact, incubated for 45 min at 37° C., washed three times with 1 ml RPMI containing 50 μg/ml gentamycin (or without gentamycin for the control), and incubated at 37° C. for 2 h. Cells were again washed three times with 1 ml RPMI and then lysed in 100 μl of PBS (Mediatech) containing 0.1% triton X-100 (Promega, Madison, Wis.) for 10 min at room temperature. The 100 μl lysates from the gentamycin treated and untreated L-929 cells were mixed with 400 μl TSB, and 100 μl of 1:50 and 1:250 further dilutions were plated onto TSB agar containing ampicillin. Plates were incubated overnight at 37° C. and colonies were counted. The number of colonies obtained from gentamycin treated samples was divided by the number of colonies from control samples without gentamycin and multiplied by 100 to calculate the invasion index.

VirF = VirF (Shigella flexneri, UniProt P0A2T1); experiment: Shigella virB-lacZ reporter gene assay; assay type: cell-based, S. flexneri; design: endogenously expressed VirF in a Shigella strain carrying a virB-lacZ reporter construct; endogenous in cells; host or cells: S. flexneri strain BS536 (virB-lacZ)
Protocol: Colonies of S. flexneri strain BS536 that were red on TSA plates containing Congo red were grown overnight in Luria-Bertani broth at 30° C. to maintain low basal expression from the virB promoter. The overnight grown cultures were diluted 1:100 into 10 ml of the same medium with either 0.3% DMSO or different concentrations of SE-1 dissolved in DMSO (final concentration 0.3% DMSO). Cultures were grown at 37° C. in a shaking incubator to an OD600 of ˜0.4, centrifuged to pellet the cells and then resuspended in Z buffer for a two-fold concentration of the cells. Control cultures were grown at 30° C., a temperature at which virF expression is not induced (37), to illustrate the basal level of expression from the virB promoter region. β-Galactosidase assays were performed, with incubation with the substrate o-nitrophenyl-β-D-galactopyranoside (ONPG) was at room temperature. Activities are presented as a percentage of the uninhibited, DMSO-only control sample. Three independent assays were performed with two replicates in each assay.

T1 sequence (P0A2T1 whole entry): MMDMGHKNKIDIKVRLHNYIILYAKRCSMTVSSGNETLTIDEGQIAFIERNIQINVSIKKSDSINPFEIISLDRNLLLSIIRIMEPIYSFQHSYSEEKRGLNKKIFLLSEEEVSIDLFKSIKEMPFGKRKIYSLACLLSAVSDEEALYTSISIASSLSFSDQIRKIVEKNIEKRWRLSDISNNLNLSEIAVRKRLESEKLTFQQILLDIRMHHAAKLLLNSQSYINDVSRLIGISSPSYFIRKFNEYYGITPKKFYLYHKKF
Sequence of VirF (P0A2T1 whole entry): as above

CCCCN1C=C(c2ccc3ccccc3n2)C(C[N+](=O)[O-])c2ccccc21 (centres unmarked) [Compound 1, 1-butyl-4-(nitromethyl)-3-quinolin-2-yl-4H-quinoline]
inhibition of DNA binding by VirF (MBP-VirF): similarly inhibits | inhibition of DNA binding by VirF (MBP-VirF; listed as SE-1): fully inhibit DNA binding | invasion decrease relative to no inhibitor ([1]; 20 μM): 1.7 fold | invasion when SE-1 and Shigella added at the same time to L-929 cells ([1]; 40 μM SE-1, Shigella grown at 37° C. without inhibitor): invaded to the same extent | invasion decrease relative to no inhibitor ([1]; 40 μM): 3 fold | inhibition at 40 µM ([1]; Shigella, L929, read-out: maximum inhibition of invasion): 70% | IC50 (VirF): ~30 µM | maximum inhibition of virB-lacZ expression (VirF; 40 μM SE-1): greater than two fold

From patent publication US20140088144A1, “INHIBITING MICROBIAL INFECTIONS” (THE UNIVERSITY OF KANSAS, priority 2012, published 2014)
